Assay results as given in patent US10233178B2, “Arylcyclopropylamine based demethylase inhibitors of LSD1 and their medical use” (priority 2010, dated 2019).

Tests used:
MAO-B = MAO-B (Homo sapiens (Human), UniProt P27338); experiment: biochemical
Experimental: For MAO-B, the protein was kept between 1.8 and 3.6 ng/ul (Sigma M7441) and kynuramine (Sigma) at 50 uM was used as substrate.

MAO-A = MAO-A (Homo sapiens (Human), UniProt P21397); experiment: biochemical
MAO-A, sequence (P21397 whole entry): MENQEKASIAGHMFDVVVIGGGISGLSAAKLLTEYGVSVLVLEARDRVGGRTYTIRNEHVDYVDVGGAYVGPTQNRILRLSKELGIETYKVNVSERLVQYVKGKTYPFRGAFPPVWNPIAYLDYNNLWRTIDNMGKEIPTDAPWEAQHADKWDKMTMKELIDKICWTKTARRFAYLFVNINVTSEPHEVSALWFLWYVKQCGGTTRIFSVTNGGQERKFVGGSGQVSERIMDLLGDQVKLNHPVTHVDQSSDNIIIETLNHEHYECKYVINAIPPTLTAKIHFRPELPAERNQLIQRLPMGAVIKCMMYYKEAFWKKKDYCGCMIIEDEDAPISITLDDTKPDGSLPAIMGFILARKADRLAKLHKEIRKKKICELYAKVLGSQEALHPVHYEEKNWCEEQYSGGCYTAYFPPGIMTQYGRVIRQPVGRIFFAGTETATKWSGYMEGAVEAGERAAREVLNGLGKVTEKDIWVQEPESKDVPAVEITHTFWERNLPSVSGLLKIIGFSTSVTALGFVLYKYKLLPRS

MAO-B, sequence (P27338 whole entry): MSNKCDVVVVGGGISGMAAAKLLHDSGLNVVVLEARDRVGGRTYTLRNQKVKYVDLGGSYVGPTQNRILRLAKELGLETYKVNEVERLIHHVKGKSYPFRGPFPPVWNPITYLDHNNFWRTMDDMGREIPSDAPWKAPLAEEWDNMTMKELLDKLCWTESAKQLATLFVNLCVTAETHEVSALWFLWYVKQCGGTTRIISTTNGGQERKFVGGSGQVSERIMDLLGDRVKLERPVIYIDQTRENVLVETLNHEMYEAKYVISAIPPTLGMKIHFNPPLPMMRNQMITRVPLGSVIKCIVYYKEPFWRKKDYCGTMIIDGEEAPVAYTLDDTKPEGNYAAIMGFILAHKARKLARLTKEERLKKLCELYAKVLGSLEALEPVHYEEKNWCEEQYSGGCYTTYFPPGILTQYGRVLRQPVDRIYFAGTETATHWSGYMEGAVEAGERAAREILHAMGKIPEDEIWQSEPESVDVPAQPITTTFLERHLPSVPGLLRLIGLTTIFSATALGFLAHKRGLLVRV

- kinact/KI (MAO-B): 7460 M⁻¹ s⁻¹
- kinact/KI (MAO-A): 62 M⁻¹ s⁻¹
Compound: C#CCN[C@@H]1CCc2ccccc21 [Rasagiline]
